Source: patent publication US20060148732A1, “Inhibition of NF-kappaB by triterpene compositions” (priority 2000, published 2006)

Columns and labels:
human tumor cell lines = experiment: Cytotoxicity / anti-tumor activity on panel of tumor cell lines; format: cell-based
Protocol: Each of the extracts was then screened against a panel of human tumor and non-tumor cells including human ovarian cancer cell lines, T-leukemic cells, human epidermoid cells, human breast cancer cells, human prostate cancer cells, human foreskin fibroblast cells, human endothelial cells, and human renal cancer cells. The cells were first plated in 96-well plates for 18-24 hours at 37° C. The cells were then exposed to varying concentrations of the plant extracts, and incubated for 72 hours at 37° C., and stained with either MTT (3-(4,5-dimethylethiazol-2-yl)-2,5-diphenyl tetrazolium bromide; Sigma Chemical Co.) for 4 hours or crystal violet (Sigma Chemical Co.) for 20 minutes at room temperature. The MTT plates received lysis buffer (20% sodium dodecyl sulfate in 50% DMF) and were incubated for an additional 6 hours before taking an OD reading at 570 nm. The crystal violet plates were washed, dye was extracted for 3-4 hours with Sorenson's buffer (0.1 M sodium citrate (pH 4.2), 50% v/v ethanol), and the plates were read at 570-600 nm (Mujoo et al., 1996). Cytotoxicity of the screened extracts was indicated by comparing the OD readings between the treated media alone and the cells treated with the plant extract. Percent cytotoxicity was calculated by 100-% of control, where % of control =[((OD of cells treated with plant extract (treated sample))/(OD of cells exposed to media alone (untreated sample)))×100].
The following human cancer cell lines were obtained from American Type Tissue Culture Collection (ATCC, Rockville, Md.). SK-OV-3 and OVCAR-3 (ovarian), Jurkat (T-cell leukemia), U-937 (histiocytic lymphoma), MDA-MB-468, MDA-MB-453, MDA-MB-435, SK-BP-3, MCF-7, MDA-MB-231, BT-20 (breast), LNCaP, PC-3, DU145 (prostate), 769-P, 786-O A498 (renal) and PANC-1 (pancreatic). HEY and Dov-13 (ovarian), cell lines were obtained from M. D. Anderson Cancer Center. The following non-transformed human cell lines MCF-10A and 10F (breast epithelium) were obtained from M. D. Anderson Cancer Center. Hs 27 (human foreskin fibroblasts) and L929 (mouse fibroblasts) were obtained from ATCC. […]

PARP in Jurkat cells = experiment: Immunoblot analysis of PARP degradation; format: cell-based, human; conditions: 2 μg/ml
Protocol: Apoptosis induced by F035 & D1 was examined by proteolytic cleavage of poly (ADP-ribose) polymerase (PARP). Jurkat cells (2×10^6/ml) were treated with F035 (2 μg/ml) and D1 (2 μg/ml) for different lengths of time. Cell lysates were prepared in buffer containing 20 mM HEPES, 250 mM NaCl, 2 mM EDTA, 0.1% NP-40, 2 μg/ml leupeptin, 2 μg/ml aprotinin, 0.5 μg/ml benzamidine, 1 mM DTT and 1 mM PMSF. Cellular proteins (60 μg/ml) were separated on a 7.5% SDS polyacrylamide gel and electrotransferred onto a nitrocellulose membrane. The membrane was probed first with monclonal anti-PARP antibody (PharMingen) and then with anti-mouse antibody conjugated to horse radish peroxidase (HRPO). Protein bands were detected by chemiluminescense (ECL, Amersham). The extent of cleavage of the 116-kDa PARP into 85-kDa and 41-kDa peptide products was used as a measure of apoptosis (Tewari et al., 1995).
Immunoblot Analysis of PARP Degradation. Induction of apoptosis was also examined by proteolytic cleavage of PARP (Nicholson and Thornberry, 1997). Jurkat cells (3×10^6) were treated with 2 μg/ml of F094, avicin D, or avicin G at 37° C. Cell lysates were prepared in a buffer containing 20 mM HEPES, 250 mM NaCl, 2 mM EDTA, 0.1% NP-40, 2 μg/ml leupeptin, 2 μg/ml aprotinin, 0.5 μg/ml benzamidine, 1 mM DTT, and 1 mM PMSF. Cellular proteins (60 μg/ml) were separated on a 7.5% SDS polyacrylamide gel and electrotransferred onto a nitrocellulose membrane. The membrane was probed first with monoclonal anti-PARP antibody (Pharmingen) and then with anti-mouse antibody conjugated to horseradish peroxidase (HRPO). Protein bands were detected by chemiluminescence (ECL). The appearance of an 85 kDa cleavage product was used as a measure of apoptosis.

[1] = test system: caspase-3 in Jurkat cells; experiment: Assay for caspase-3 protease; format: cell-based, human; conditions: for start of caspase 3 activation: post treatment
Protocol: Caspase-3 activity was measured as described earlier (Enari et al., 1995) with some modifications. Briefly, Jurkat cells (1×10^6/ml) were treated with F035, D1 & G1 for different lengths of time. Cytosolic extracts were prepared by repeated freeze thawing in 300 μl of extraction buffer (12.5 mM Tris, pH 7.0, 1 mM DTT, 0.125 mM EDTA, 5% glycerol, 1 μM PMSF, 1 μg/ml leupeptin, 1 μg/ml pepstatin and 1 μg/ml aprotinin). Cell lystates were diluted 1:2 with ICE buffer (50 mM Tris, pH 7.0, 0.5 mM EDTA, 4 mM DTT and 20% glycerol) and incubated with 20 μM of a caspase 3 substrate (acetyl-Asp-Glu-Val-Asp-aminomethylcoumarin) at 37° C. Caspase-3 activity was monitored by the production of fluorescent aminomethylcoumarin, which was measured at excitation 355 nm, emission 460 nm using Fluoroscan II (Labsystems, Helsinki, Finland).
Assay for Caspase-3 Protease. Caspase-3 activity was measured as described earlier (Martin et al, 1995) with some modifications. Briefly, Jurkat cells (1×10^6) were treated with F094, avicin D, or avicin G (2 μg/ml) at 37° C. Cytosolic extracts were prepared by repeated freeze thawing of the cells in 300 μl of an extraction buffer (12.5 mM Tris, pH 7.0, 1 mM DTT, 0.125 mM EDTA, 5% glycerol, 1 μM PMSF, 1 μg/ml leupeptin, 1 μg/ml pepstatin, and 1 μg/ml aprotinin). Cell lysates were diluted 1:2 with an ICE buffer (50 mM Tris, pH 7.0, 0.5 mM EDTA, 4 mM DTT, and 20% glycerol) and incubated with 20 μM of a caspase-3 substrate (acetyl-Asp-Glu-Val-Asp-aminomethylcoumarin) (Calbiochem, La Jolla, Calif.) at 37° C. Caspase-3 activity was monitored by the production of flourescent aminomethylcoumarin that was measured at excitation 355 nm and emission 460 nm, using Fluoroscan II (Labsystems, Helsinki, Finland).

[2] = Biological assays of purified compounds (not specified)

| Structure (SMILES) | IC50 compared with F035 (human tumor cell lines; 769-P, MDA-MB-453, MDA-MB-231) | potency compared with F035 (human tumor cell lines; C-2 (HEY Variant) and Jurkat cells) | time to (almost) complete cleavage of PARP (PARP in Jurkat cells) | start of caspase 3 activation [1] | biological activity relative to other compounds [2] | cytotoxicity compared with F035 and D1 (human tumor cell lines; most of the cells tested (Jurkat, C-2, 769-P, MDA-MB-231, MDA-MB-453)) | time at which activation of caspase-3 is detectable ([1]; 2 μg/ml) |
| --- | --- | --- | --- | --- | --- | --- | --- |
| C=C[C@](C)(O)CC/C=C(\CO)C(=O)O[C@H]1[C@H](O)[C@@H](O)[C@H](O[C@@](C)(C=C)CC/C=C(\CO)C(=O)O[C@H]2C[C@]3(C(=O)O[C@@H]4O[C@H](CO)[C@@H](O)[C@H](O)[C@H]4O[C@@H]4O[C@@H](C)[C@H](O[C@@H]5O[C@@H](CO)[C@H](O)[C@H]5O)[C@@H](O[C@@H]5O[C@H](CO)[C@@H](O)[C@H](O)[C@H]5O)[C@H]4O)[C@H](O)C[C@]4(C)C(=CC[C@@H]5[C@@]6(C)CC[C@H](O[C@@H]7O[C@H](CO[C@@H]8O[C@H](C)[C@H](O)[C@H](O)[C@H]8O[C@@H]8OC[C@@H](O)[C@H](O)[C@H]8O)[C@@H](O)[C@H](O)[C@H]7NC(C)=O)C(C)(C)[C@@H]6CC[C@]54C)[C@@H]3CC2(C)C)O[C@@H]1C [Fraction D1] | comparable to F035 | twice as potent as F035 | 8 to 16 h | 4 h | considerable biological activity |  |  |
| C=C[C@](C)(O)CC/C=C(\C)C(=O)O[C@H]1[C@H](O)[C@@H](O)[C@H](O[C@@](C)(C=C)CC/C=C(\CO)C(=O)O[C@H]2C[C@]3(C(=O)O[C@@H]4O[C@H](CO)[C@@H](O)[C@H](O)[C@H]4O[C@@H]4O[C@@H](C)[C@H](O[C@@H]5O[C@@H](CO)[C@H](O)[C@H]5O)[C@@H](O[C@@H]5O[C@H](CO)[C@@H](O)[C@H](O)[C@H]5O)[C@H]4O)[C@H](O)C[C@]4(C)C(=CC[C@@H]5[C@@]6(C)CC[C@H](O[C@@H]7O[C@H](CO[C@@H]8O[C@H](C)[C@H](O)[C@H](O)[C@H]8O[C@@H]8OC[C@@H](O)[C@H](O)[C@H]8O)[C@@H](O)[C@H](O)[C@H]7NC(C)=O)C(C)(C)[C@@H]6CC[C@]54C)[C@@H]3CC2(C)C)O[C@@H]1C [Fraction G1] |  |  | ≤ 4 h | 4 h | more biologically active than D1 | significantly more cytotoxic than F035 and D1 | 2 to 4 h |
